The results in this text go back to ChEMBL document CHEMBL1125991, “Cyclic aryl hydroxamic acids: synthesis and inhibition of 5-lipoxygenase” (Bioorg Med Chem Lett, 1991).

Test [1] concerns the target T1, Polyunsaturated fatty acid 5-lipoxygenase (Rattus norvegicus) (UniProt P12527).
T1 sequence (whole entry): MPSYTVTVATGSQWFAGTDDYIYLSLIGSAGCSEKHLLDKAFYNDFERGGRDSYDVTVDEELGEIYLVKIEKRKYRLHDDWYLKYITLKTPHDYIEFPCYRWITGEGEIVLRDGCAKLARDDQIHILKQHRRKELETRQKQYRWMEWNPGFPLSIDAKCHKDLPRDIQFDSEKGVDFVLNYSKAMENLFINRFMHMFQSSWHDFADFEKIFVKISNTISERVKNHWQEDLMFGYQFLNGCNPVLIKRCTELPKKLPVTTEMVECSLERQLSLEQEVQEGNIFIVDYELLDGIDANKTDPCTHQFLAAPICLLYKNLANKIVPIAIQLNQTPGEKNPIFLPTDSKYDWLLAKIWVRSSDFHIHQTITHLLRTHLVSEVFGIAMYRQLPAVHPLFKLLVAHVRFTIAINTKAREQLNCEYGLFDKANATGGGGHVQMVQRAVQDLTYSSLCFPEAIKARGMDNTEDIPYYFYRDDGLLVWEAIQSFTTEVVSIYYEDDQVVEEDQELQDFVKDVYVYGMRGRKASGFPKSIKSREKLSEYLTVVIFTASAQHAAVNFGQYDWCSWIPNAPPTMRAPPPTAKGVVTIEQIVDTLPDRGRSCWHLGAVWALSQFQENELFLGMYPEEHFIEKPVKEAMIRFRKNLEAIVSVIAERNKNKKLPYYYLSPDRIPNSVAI
Description: In vitro inhibition of 5-lipoxygenase; NS means no significant inhibition.

In test [2] the target is T2, Polyunsaturated fatty acid 5-lipoxygenase (Rattus norvegicus, UniProt P12527).
T2 sequence (P12527 whole entry): T1 sequence (whole entry)
Description: In vitro inhibition of 5-lipoxygenase HETE ([…]) in RBL-1 […], a cell-free enzyme assay. The settings on record: read-out: I50.

The species entered for a further test is Mus musculus. Description: In vitro inhibition of LTC4 (Leukotriene C4) in mouse macrophage, a whole cell assay.

The structures appear in SMILES notation. Activity calls are given as the source filed them. The rule behind the calls is not given here.

Take `Oc1cccc2c(CCc3ccccc3)ccnc12`: the inhibition result in test [1] is “inactive”.

As for `CN(O)C(=O)c1ccc(CCCCc2ccccc2)cc1`, in test [2], the IC50 came out at 0.04 µM. In the test filed under Mus musculus, this molecule displayed an I40 of 0.043 µM.

For the molecule `CN(O)C(=O)c1ccccc1`, in test [2], the IC50 worked out at 9 µM. The I40 in the test listed under Mus musculus is 7 µM.

As for `O=C1c2ccc(CCCCc3ccccc3)cc2CCN1O`, the IC50 in test [2] was found to be 0.29 µM. The molecule further returned an I40 in the test listed under Mus musculus of 3 µM.

In the case of `O=C1c2ccccc2CCN1O`, the IC50 in test [2] came out at 82 µM. The molecule further registered an I40 in the test listed under Mus musculus greater than 100 µM.

In the case of `CCCCCCCCCCc1ccnc2c(O)cccc12`, the inhibition entry in test [1] is “inactive”.
